Literature values as cited in PubChem BioAssay AID1259409 (Chemical Carcinogenesis Research Information System (CCRIS), 2018).

System: rodent chemically induced tumor inhibition, incidence and multiplicity
Assay: CCRIS tumor inhibitor studies
Details: Carcinogen: N-NITROBIS(2-OXOPROPYL)AMINE, 60559-38-4, Dose [Inhibitor]: 0.5 OR 1.0 MMOL/KG DIET DAILY STARTING 1 WK AFTER CARCINOGEN TREATMENT AND CONTINUING THROUGH THE END OF THE STUDY (STUD, Route [Inhibitor]: ORAL, Species: HAMSTER, Promoter: NONE USED

CC1=C(/C=C/C(C)=C/C=C/C(C)=C/C(=O)NCCO)C(C)(C)CCC1
tumour outcome (control, treated, inhibition, significance) (Strain/Sex: SYRIAN/FEMALE, Target Tissue: Type of Lesion: LIVER: BENIGN TUMOR, Dose [Carcinogen]: 40 MG/KG BW ONCE): 4/20 (20%), 17/35 (49%), -145%, not significant | tumour outcome (control, treated, inhibition, significance) (Strain/Sex: SYRIAN/FEMALE, Target Tissue: Type of Lesion: ND: TOTAL TUMOR, Dose [Carcinogen]: 10 MG/KG BW ONCE): 13/23 (56%), 21/37 (57%), -2%, not significant | tumour outcome (control, treated, inhibition, significance) (Strain/Sex: SYRIAN/FEMALE, Target Tissue: Type of Lesion: ND: TOTAL TUMOR, Dose [Carcinogen]: 40 MG/KG BW ONCE): 17/20 (85%), 33/34 (97%), -14%, not significant | tumour outcome (control, treated, inhibition, significance) (Strain/Sex: SYRIAN/FEMALE, Target Tissue: Type of Lesion: PANCREAS: DUCTULAR ADENOMA, Dose [Carcinogen]: 10 MG/KG BW ONCE): 5/23 (23%), 10/37 (27%), -17%, not significant | tumour outcome (control, treated, inhibition, significance) (Strain/Sex: SYRIAN/FEMALE, Target Tissue: Type of Lesion: PANCREAS: DUCTULAR ADENOMA, Dose [Carcinogen]: 40 MG/KG BW ONCE): 12/20 (60%), 27/33 (82%), -37%, not significant | tumour outcome (control, treated, inhibition, significance) (Strain/Sex: SYRIAN/FEMALE, Target Tissue: Type of Lesion: PANCREAS: DUCTULAR CARCINOMA, Dose [Carcinogen]: 40 MG/KG BW ONCE): 6/20 (30%), 8/33 (24%), 20%, not significant | tumour outcome (control, treated, inhibition, significance) (Strain/Sex: SYRIAN/MALE, Target Tissue: Type of Lesion: LIVER: BENIGN TUMOR, Dose [Carcinogen]: 40 MG/KG BW ONCE): 5/24 (21%), 26/42 (62%), -195%, p<0.05 | tumour outcome (control, treated, inhibition, significance) (Strain/Sex: SYRIAN/MALE, Target Tissue: Type of Lesion: ND: TOTAL TUMOR, Dose [Carcinogen]: 10 MG/KG BW ONCE): 12/20 (54%), 31/39 (79%), -46%, not significant | tumour outcome (control, treated, inhibition, significance) (Strain/Sex: SYRIAN/MALE, Target Tissue: Type of Lesion: ND: TOTAL TUMOR, Dose [Carcinogen]: 40 MG/KG BW ONCE): 20/24 (83%), 41/42 (98%), -18%, not significant | tumour outcome (control, treated, inhibition, significance) (Strain/Sex: SYRIAN/MALE, Target Tissue: Type of Lesion: PANCREAS: DUCTULAR ADENOMA, Dose [Carcinogen]: 10 MG/KG BW ONCE): 3/22 (14%), 16/37 (43%), -207%, not significant | tumour outcome (control, treated, inhibition, significance) (Strain/Sex: SYRIAN/MALE, Target Tissue: Type of Lesion: PANCREAS: DUCTULAR ADENOMA, Dose [Carcinogen]: 40 MG/KG BW ONCE): 8/24 (33%), 34/42 (81%), -145%, not significant
